Experimental data as given in ChEMBL document CHEMBL1201862, “PubChem BioAssay data set” (2004).
Activity calls are given as the source filed them.

Tests used:
[1] = molecular target: T1, Short transient receptor potential channel 4 (Mus musculus, UniProt Q9QUQ5); assay: mouse TRPC4 channel inhibitors, dose response, cell-based, HEK293 TRPC4/mu-opioid, Fluo-4 calcium (AID 434942); assay type: functional;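 further: potency of inhibitors blocking the TRPC4 calcium response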
T1 sequence (Q9QUQ5 whole entry): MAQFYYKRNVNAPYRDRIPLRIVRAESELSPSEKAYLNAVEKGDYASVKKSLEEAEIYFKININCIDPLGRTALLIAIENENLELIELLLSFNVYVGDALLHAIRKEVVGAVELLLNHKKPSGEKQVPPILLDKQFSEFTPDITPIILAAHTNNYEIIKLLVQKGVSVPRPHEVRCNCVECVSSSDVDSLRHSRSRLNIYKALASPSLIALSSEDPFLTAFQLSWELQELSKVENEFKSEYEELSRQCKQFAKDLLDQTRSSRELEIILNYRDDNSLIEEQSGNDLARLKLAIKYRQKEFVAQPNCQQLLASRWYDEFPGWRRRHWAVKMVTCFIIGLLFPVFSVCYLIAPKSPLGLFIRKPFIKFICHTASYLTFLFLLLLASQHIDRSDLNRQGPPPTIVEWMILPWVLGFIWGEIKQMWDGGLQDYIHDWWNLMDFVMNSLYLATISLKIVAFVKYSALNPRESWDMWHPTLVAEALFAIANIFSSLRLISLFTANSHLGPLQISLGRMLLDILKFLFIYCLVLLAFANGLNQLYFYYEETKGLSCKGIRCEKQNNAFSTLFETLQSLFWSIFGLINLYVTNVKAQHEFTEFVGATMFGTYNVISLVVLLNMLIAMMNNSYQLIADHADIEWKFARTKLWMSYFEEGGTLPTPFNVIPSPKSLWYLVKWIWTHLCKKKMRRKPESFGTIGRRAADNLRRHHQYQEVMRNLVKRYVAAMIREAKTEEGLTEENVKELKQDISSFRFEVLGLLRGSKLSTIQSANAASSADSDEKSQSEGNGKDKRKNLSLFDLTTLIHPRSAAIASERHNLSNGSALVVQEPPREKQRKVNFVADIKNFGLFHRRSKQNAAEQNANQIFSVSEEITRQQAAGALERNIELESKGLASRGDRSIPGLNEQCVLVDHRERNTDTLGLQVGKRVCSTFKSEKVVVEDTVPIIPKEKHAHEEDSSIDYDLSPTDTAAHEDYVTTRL

[2] = cytotoxicity in OVCAR8 ovarian cancer cells, dose response, PAX8 project, cell-based, plate reader, dry powder samples (AID 743197); assay type: functional; settings: OVCAR-8
[3] = molecular target: Paired box protein Pax-8 (Homo sapiens, UniProt Q06710); assay: inhibitors of PAX8-driven TPO luciferase reporter, dose response, RMG-I cells, cherry-pick (AID 687027); assay type: functional, cell-based;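 further: luciferase reporter driven by Pax8 target thyroperoxidase promoter measured by SteadyGlo luminescence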
Paired box protein Pax-8, sequence (Q06710 whole entry): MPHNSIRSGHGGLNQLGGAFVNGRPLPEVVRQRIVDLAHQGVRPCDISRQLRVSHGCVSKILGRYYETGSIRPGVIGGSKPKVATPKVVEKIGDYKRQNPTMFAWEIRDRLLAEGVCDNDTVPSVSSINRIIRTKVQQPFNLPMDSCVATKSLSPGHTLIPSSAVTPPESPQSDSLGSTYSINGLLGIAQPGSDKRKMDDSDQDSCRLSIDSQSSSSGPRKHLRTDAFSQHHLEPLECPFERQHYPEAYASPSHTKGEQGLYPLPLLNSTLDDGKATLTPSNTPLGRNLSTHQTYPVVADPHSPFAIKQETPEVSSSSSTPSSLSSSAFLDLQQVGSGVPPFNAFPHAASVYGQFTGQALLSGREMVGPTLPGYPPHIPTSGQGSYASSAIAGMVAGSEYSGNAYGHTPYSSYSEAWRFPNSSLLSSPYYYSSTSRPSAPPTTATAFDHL

[4] = molecular target: T2, Ubiquitin-conjugating enzyme E2 N (Homo sapiens, UniProt P61088); assay type: functional;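 further: Dose-response confirmation in a TR-FRET assay detecting UBC13-driven polyubiquitin chain formation, inhibition measured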
T2 sequence (P61088 whole entry): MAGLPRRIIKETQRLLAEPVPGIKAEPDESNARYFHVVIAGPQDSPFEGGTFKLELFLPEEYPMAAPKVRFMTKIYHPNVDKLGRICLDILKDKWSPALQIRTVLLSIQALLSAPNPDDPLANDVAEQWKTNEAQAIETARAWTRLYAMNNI

[5] = molecular target: T3, DNA repair protein RAD52 homolog (Homo sapiens, UniProt P43351); assay type: functional, biochemical
T3 sequence (P43351 whole entry): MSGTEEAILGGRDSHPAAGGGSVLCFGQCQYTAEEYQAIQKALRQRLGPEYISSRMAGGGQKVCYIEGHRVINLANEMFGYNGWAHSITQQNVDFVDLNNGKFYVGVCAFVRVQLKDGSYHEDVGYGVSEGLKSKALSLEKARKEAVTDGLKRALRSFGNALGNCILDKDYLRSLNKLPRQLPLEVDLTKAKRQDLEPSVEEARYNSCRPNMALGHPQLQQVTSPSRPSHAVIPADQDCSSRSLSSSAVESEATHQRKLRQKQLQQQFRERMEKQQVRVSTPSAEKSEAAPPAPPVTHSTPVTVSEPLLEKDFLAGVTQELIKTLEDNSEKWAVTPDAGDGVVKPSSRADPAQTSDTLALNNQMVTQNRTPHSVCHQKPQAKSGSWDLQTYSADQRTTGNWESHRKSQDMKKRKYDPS

[6] = molecular target: T4, Long-chain-fatty-acid--AMP ligase FadD28 (Mycobacterium tuberculosis, UniProt P9WQ59); assay: Fluorescence polarization aasay to screen for inhibitors that compete for the binding of FadD28 to a bisubstrate Measured in Biochemical System Using Plate Reader - 2147-01_Inhibitor_Dose_CherryPick_Activity.; assay type: functional, Mycobacterium tuberculosis H37Rv
T4 sequence (P9WQ59 whole entry): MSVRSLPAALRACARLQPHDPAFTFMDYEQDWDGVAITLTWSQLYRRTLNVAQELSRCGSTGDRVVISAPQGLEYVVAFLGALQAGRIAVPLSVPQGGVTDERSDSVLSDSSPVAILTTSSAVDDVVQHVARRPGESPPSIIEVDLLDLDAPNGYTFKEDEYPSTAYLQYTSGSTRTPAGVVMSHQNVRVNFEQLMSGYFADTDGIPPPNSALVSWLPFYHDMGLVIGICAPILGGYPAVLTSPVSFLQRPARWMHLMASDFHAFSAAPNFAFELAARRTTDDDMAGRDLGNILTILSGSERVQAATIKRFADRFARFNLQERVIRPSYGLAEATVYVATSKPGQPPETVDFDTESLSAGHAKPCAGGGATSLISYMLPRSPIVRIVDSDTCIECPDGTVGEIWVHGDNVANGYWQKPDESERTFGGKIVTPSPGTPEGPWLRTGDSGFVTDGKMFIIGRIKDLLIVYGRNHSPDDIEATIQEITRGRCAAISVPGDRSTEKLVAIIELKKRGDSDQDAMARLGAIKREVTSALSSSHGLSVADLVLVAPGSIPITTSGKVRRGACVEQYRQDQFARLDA

[7] = molecular target: T5, Carboxy-terminal domain RNA polymerase II polypeptide A small phosphatase 1 (Homo sapiens, UniProt Q9GZU7); assay: inhibitors of CTDSP1, concentration-response testing, biochemical assay, absorbance-based, actives from ultra-high-throughput screening (AID 540297); assay type: functional
T5 sequence (Q9GZU7 whole entry): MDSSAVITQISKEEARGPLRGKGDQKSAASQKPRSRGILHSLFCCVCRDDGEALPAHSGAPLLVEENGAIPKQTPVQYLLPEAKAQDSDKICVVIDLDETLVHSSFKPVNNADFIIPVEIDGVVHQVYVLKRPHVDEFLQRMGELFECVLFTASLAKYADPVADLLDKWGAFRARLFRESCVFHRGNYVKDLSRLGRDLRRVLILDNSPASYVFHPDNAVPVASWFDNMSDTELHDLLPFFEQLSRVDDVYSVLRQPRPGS

[8] = cytotoxicity in HEK-293T cells, dose response, cytotoxicity control for TCR NF-kB inhibitor project, luminescence, T-cell screen hits (AID 489026); assay type: functional, cell-based;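 further: cells exposed to compound about 14 hours before the viability readout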
[9] = molecular target: Cytochrome P450 3A4 (Homo sapiens, UniProt P08684);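 further: CYP3A4 tested as one member of a cytochrome P450 panel screen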
Cytochrome P450 3A4, sequence (P08684 whole entry): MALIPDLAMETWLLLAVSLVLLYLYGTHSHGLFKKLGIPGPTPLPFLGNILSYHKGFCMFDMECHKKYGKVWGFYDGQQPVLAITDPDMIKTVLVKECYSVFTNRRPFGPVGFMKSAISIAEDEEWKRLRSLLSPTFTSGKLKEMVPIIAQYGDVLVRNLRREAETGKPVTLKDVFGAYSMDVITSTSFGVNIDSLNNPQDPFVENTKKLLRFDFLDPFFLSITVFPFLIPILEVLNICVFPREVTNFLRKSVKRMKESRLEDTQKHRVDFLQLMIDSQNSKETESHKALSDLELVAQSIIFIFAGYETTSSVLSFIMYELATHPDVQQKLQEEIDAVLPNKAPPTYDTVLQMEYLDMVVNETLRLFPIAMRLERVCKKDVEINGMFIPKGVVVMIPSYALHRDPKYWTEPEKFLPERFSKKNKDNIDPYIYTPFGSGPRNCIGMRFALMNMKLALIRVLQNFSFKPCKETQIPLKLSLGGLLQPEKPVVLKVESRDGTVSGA

[10] = molecular target: Eukaryotic translation initiation factor 4E (Mus musculus, UniProt P63073); assay: eIF4E–eIF4G protein interaction inhibitors, dose response, biochemical, TR-FRET (AID 855); assay type: functional;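 further: potency for disrupting eIF4E binding to eIF4GI seen as loss of FRET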
Eukaryotic translation initiation factor 4E, sequence (P63073 whole entry): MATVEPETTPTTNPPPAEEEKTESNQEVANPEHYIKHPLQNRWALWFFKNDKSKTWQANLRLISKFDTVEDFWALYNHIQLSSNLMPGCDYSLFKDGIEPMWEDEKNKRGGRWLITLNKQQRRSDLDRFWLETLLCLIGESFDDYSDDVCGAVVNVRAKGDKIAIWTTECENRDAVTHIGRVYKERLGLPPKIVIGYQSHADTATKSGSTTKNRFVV

[11] = molecular target: Nonstructural protein 1 (Influenza A virus, UniProt Q194T2); assay type: functional, Influenza A virus (A/California/07/2009(H1N1))
Nonstructural protein 1, sequence (Q194T2 whole entry): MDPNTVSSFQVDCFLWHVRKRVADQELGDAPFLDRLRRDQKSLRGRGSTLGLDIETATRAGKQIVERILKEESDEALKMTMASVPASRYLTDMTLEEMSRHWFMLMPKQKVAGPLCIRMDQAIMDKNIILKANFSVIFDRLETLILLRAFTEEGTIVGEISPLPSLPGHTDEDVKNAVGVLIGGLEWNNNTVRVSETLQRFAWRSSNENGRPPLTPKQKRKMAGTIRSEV

[12] = cytotoxicity in HEK-293T cells, dose response, cytotoxicity control for BCR NF-kB inhibitor project, luminescence, B-cell screen hits (AID 489021); assay type: functional, cell-based;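 further: HEK-293T cells carrying an NF-kB luciferase reporter; cells exposed to compound for about 14 hours before viability readout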
[13] = molecular target: Prothrombin (Homo sapiens, UniProt P00734); assay: Thrombin 1536 HTS Dose Response Confirmation. [Related pubchem assays: 1046 (Thrombin 1536 HTS; hits were confirmed in this assay)]; assay type: functional
[14] = molecular target: Glyceraldehyde-3-phosphate dehydrogenase (Homo sapiens, UniProt P04406)
Glyceraldehyde-3-phosphate dehydrogenase, sequence (P04406 whole entry): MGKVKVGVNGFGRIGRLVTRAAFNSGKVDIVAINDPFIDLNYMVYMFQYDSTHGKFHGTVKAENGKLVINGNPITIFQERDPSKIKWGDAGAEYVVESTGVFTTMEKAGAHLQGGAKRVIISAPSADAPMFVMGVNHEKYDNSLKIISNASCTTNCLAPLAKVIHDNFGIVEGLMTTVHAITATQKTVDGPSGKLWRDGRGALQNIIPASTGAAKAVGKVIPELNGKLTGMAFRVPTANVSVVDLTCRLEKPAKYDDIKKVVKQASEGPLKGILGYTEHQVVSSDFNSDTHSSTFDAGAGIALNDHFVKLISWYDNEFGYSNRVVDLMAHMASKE

[15] = tested on: INS1; assay: beta cell apoptosis inhibitors, cytokine rescue, dose response, luminescence, retest (AID 449756); assay type: functional, cell-based; settings: Rattus norvegicus;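 further: cell death triggered by IL-1 beta plus TNF-alpha plus IFN-gamma mixture; protective hits raise ATP signal compared with cytokine alone wells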
[16] = molecular target: Heat shock protein HSP 90-alpha (Homo sapiens, UniProt P07900); assay type: functional, organism-based
[17] = molecular target: T1, Short transient receptor potential channel 4; assay: mouse TRPC4 channel activators, dose response, cell-based, HEK293 TRPC4/mu-opioid, Fluo-4 calcium (AID 434937); assay type: functional
[18] = Luminescence Cell-Based Dose Response HTS to Identify Inhibitors of 5'UTR Stem-Loop Driven Prion Protein mRNA Translation in H4 Neuroglioblastoma Cells. [Related pubchem assays: 1827 (Project Summary), 1813 (Primary HTS)]; assay type: functional
[19] = inhibitors of firefly luciferase expression or activity, dose response, H4 neuroglioma cells, luminescence (AID 1990); assay type: functional, cell-based
[20] = inhibitors of SNCA 5'UTR-driven reporter translation, confirmation, H4 neuroglioma cells, luminescence (AID 1988); assay type: functional, cell-based
[21] = molecular target: T6, Corticotropin-releasing factor receptor 2/Corticotropin-releasing factor-binding protein (Homo sapiens, UniProt P24387+Q13324); assay: activators of CRF receptor 2 with binding protein – uHTS hits, confirmation (AID 602473); assay type: functional; settings: read-out: EC50_Mean
T6 sequence (Q13324 whole entry): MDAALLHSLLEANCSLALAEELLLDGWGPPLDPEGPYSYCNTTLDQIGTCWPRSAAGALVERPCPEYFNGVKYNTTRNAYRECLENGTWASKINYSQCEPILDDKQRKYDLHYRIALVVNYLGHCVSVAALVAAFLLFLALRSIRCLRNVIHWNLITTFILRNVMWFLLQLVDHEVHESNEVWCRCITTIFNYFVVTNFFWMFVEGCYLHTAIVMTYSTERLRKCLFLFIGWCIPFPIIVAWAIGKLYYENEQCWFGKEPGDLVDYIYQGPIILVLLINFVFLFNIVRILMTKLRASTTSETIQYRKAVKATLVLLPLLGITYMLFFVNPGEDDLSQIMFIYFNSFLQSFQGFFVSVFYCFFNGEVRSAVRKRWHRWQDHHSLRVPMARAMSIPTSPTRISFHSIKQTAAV
T6 sequence (P24387 whole entry): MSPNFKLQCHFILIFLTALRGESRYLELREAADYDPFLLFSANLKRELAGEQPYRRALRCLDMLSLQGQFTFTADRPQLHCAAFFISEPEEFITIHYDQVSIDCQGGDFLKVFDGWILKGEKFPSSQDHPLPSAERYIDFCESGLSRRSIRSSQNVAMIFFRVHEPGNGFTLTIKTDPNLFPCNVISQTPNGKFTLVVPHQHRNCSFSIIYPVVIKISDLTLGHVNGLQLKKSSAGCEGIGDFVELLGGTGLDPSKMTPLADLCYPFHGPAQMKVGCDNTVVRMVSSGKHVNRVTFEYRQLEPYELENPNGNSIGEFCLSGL

[22] = HepG2 cell cytotoxicity, dose response, cytotoxicity control for Shn3 inhibitor project, CellTiter-Glo, cherry-picked (AID 624134); assay type: functional, cell-based

COc1ccc(Nc2nc(N)c3ccccc3n2)c(OC)c1
EC50 [1]: 4.22 µM (active)

COc1ccc(NC(=O)Nc2ccc3c(c2)C(=O)N([C@@H](C)CO)C[C@@H](C)[C@@H](CN(C)Cc2ccc(Cl)c(Cl)c2)OCCCC[C@@H](C)O3)cc1
AC50 [2]: 65.4 µM (active)
AC50 [3]: 14.1 µM (active)

OCCN1CCN(CC/C=C2/c3ccccc3Sc3ccc(C(F)(F)F)cc32)CC1
IC50 [4]: > 20 µM (inactive)
AC50 [5]: 21.2 µM (active)

Cc1cccc(NC(=O)CN2C(=O)S/C(=C\c3cccn3-c3cccc(C(=O)O)c3)C2=O)c1
AC50 [6]: 0.519 µM (active)
IC50 [7]: 6.83 µM (active)

CCCC(=O)Nc1nc2ccc(S(=O)(=O)N3CCCCC3)cc2s1
IC50 [8]: > 80 µM (inactive)

Cc1c(OC(=O)c2ccc([N+](=O)[O-])cc2)c2c(c[n+]1C)COC(C)(C)OC2
AC50 [9]: 7.08 µM (inconclusive)
IC50 [7]: 4.14 µM (active)
IC50 [10]: > 64 µM (inactive)

COc1ccc(Nc2c3c(nc4ccccc24)CCC3)cc1
EC50 [1]: 4.22 µM (active)

CN1CCN(c2cc(N3CCN(C(=O)c4ccco4)CC3)c3c4c(onc24)-c2ccccc2C3=O)CC1
IC50 [11]: 15.3 µM (active)

NNC(=O)COc1ccc(-c2nccc(-c3ccc(F)cc3)n2)cc1
IC50 [12]: > 80 µM (inactive)

CCOc1ccc(C(=O)NCC(=O)OC(C)C(=O)NCc2ccco2)cc1OCC (stereo not drawn)
IC50 [13]: > 50 µM (not active)

CC(C)C[C@@H]1CN=C(N)N1C[C@@H]1CCCN1C[C@@H](C(C)C)N1C[C@@H](Cc2ccccc2)N(CCc2ccc(Cl)c(Cl)c2)C1=N
AC50 [5]: 16.7 µM (active)

CCOC(=O)CN1C(=O)S/C(=C\c2ccc(-c3ccc(C(=O)O)c(Cl)c3)o2)C1=O
IC50 [7]: 4.84 µM (active)

CC(C)CN(CC(C)C)c1nc(N)c(C#N)c(CC#N)c1C#N
EC50 [1]: 5.96 µM (active)

CSCC[C@H](NS(=O)(=O)c1ccc(C(C)=O)cc1)c1nnc2ccccn12
IC50 [7]: 5.88 µM (active)

O=C1C2C3C=CC(C3)C2C(=O)N1c1n[nH]c(CCc2ccccc2)n1 (stereo not drawn)
IC50 [14]: > 100 µM (not active)

CCCc1noc2c1/C(=N\O)CC(CC(C)SCC)C2 (stereo not drawn)
EC50 [1]: 1.5 µM (active)

Cc1c(C)c2cccnc2c2ncccc12
IC50 [8]: > 80 µM (inactive)
AC50 [15]: 1.57 µM (active)
AC50 [16]: 3.99 µM (active)

Cc1cc(N(C)C)ccc1N=Nc1ccc2ncccc2c1
IC50 [11]: 9.43 µM (active)

CCn1cc(CN2CCC(n3nccc3NC(=O)CCCc3ccccc3)CC2)cn1
EC50 [1]: 1.19 µM (active)
EC50 [17]: 1.33 µM (active)

COc1ccc(/C=N/NC(=O)COc2ccccc2-c2ccccc2)cc1
IC50 [8]: > 80 µM (inactive)
EC50 [18]: 0.483 µM (active)
EC50 [19]: 8.05 µM (active)
EC50 [20]: 0.166 µM (active)

COc1ccc(CNc2nc(-c3cccnc3)nn2C(=O)c2ccco2)cc1
IC50 [13]: 1.19 µM (active)

C=CCOC(=O)COc1cc(C)cc2oc(=O)c3c(c12)CCC3
IC50 [12]: > 80 µM (inactive)

O=C1C(Cl)=C(N2CCOCC2)C(=O)N1c1ccnc(Cl)c1
IC50 [14]: > 50 µM (inconclusive)

CCOc1ccc(Br)cc1C1=CC(=O)C[C@H](c2ccc(OC)cc2)C1
IC50 [8]: > 80 µM (inactive)
EC50 [21]: > 53 µM (inactive)
AC50 [22]: > 70 µM (inactive)

S=C(NCc1cccs1)NCC1CCCO1 (stereo not drawn)
IC50 [13]: > 50 µM (not active)
